Where two headings read alike, the source gives them in different places.

The test system of series [1] is Calcium-reconstituted sheep blood. Nature of the series: Activated clotting time (ACT). The settings on record: individual drug at 0.6 ng/mg. As for the experimental part:
The activated clotting time (ACT) evaluation of anticoagulants was performed in Calcium-reconstituted sheep blood and recorded employing the Hemochron® Response device. […] A target amount of drug solution was then added into the test tube. […] The tube was gently shaken before being inserted into the Hemochron Response detector. The ACT read out was recorded and reported. The ACT of the control blood in the absence of any drug as first determined to establish a baseline. Then ACT was determined in the presence of different concentrations of the drug as a single component. Selected drug combinations, were then tested to evaluate for potential synergy in action between the two drugs.

The test system of series [2] is Tissue factor generated antiplatelet. The settings on record: cited from earlier work.
Series [3] can be described thus: Tissue drug concentration in stented and adjacent artery segments (LCMS). Type of series: in vivo, porcine. The settings on record: pig, artery tissue adjacent to the stented segment, other: drug eluting stent implanted in coronary artery, Table 4B, stent arm not named; for concentration at 90 days: within 90 days; for concentration at 3 h: within 3 hours; for concentration at 28 days: within 28 days. The source says:
The stented artery was cut longitudinally with surgical scissors. The stents were separated from the tissue.

For series [4], the system named is Human Aortic SMC (HAoSMC). Nature of the series: HAoSMC cell proliferation assay. Type of series: cell-based. The settings on record: 72 hours incubation.
Method: Cell proliferation assay was done in 96-well format. Low passage cells were trypsinized and seeded in 96 well plates at a density of ˜4000 cells/well. The cells are allowed to attach overnight in a CO2 incubator. Next day, the medium was removed and replaced with fresh complete medium containing various concentrations of the test compounds. The final concentration of vehicle (DMSO) in the test medium was 0.1%. After adding test compounds, the cells were incubated for 72 hours. Following this period, the medium was removed and then added fresh medium (100 μl) containing CellTiter Aqueous (lx concentration final) to the wells and incubated for 2 hours in the CO2 incubator. At the end of incubation measured fluorescence with a plate-reader. Controlled incubations with untreated cells and blank incubations containing only medium were included and tested similarly. Based on the cell viability assay the percentage inhibition of the cell proliferation was determined at the different concentrations of the drug tested.
Series [5] in a line: Coated balloon tissue concentration in vivo (Table 7). Also noted: species or system porcine. The following applies: for concentration at 15 min: 300 μg. The source says:
The balloon (e.g., the balloon of a balloon-catheter of a stent-delivery system) was advanced to a site to be treated (e.g., an occluded or weakened section of a blood vessel to be opened up or supported by a stent) in the body of a subject and inflated to a desired inflation diameter. Before, during, and/or after inflation of the balloon, the balloon released the therapeutic composition to, into, or at the treatment site, or to, into, or at an area adjacent thereto, by any suitable mechanism (e.g., concentration gradient, diffusion, pressure, or mechanical force, or a combination thereof). […] The tissue concentration is shown in ng/mg tissue. The coated balloons were evaluated for drug delivery efficiency in an animal study. Drug transfer of the coated balloons into arterial segments were evaluated using harvested pig arteries. The arterial wall was separated after animal study. The arterial walls were then stored in an individual labeled vial. All samples were kept on dry ice until stored in the −80° C. freezer. All samples were then frozen to […] prior to being analyzed.

In the case of `COc1ccc(-n2nc(C(N)=O)c3c2C(=O)N(c2ccc(N4CCCCC4=O)cc2)CC3)cc1` [Apixaban], the ACT in series [1] is listed as 522.
A word on the IC50: it is the concentration at which inhibition is half-maximal. On to `CC1CNc2c(cccc2S(=O)(=O)N[C@@H](CCCNC(=N)N)C(=O)N2CC[C@@H](C)C[C@@H]2C(=O)O)C1` (some centres unmarked) [Argatroban], for which, in series [2], the IC50 is 79 nM and the “IC50 for Tissue factor generated antiplatelet” value was 0.04 ng/mg. For the same compound, the concentration at 90 days in series [3] was ~3740 ng/g. In addition, in series [4], the HAoSMC proliferation inhibition entry is “small to no inhibition”. In addition, in series [1], the ACT came out at 301.
With `CO[C@@H]1C[C@H](C[C@@H](C)[C@@H]2CC(=O)[C@H](C)/C=C(\C)[C@@H](O)[C@@H](OC)C(=O)[C@H](C)C[C@H](C)/C=C/C=C/C=C(\C)[C@@H](O)C[C@@H]3CC[C@@H](C)[C@@](O)(O3)C(=O)C(=O)N3CCCC[C@H]3C(=O)O2)CC[C@H]1O` [Novolimus, 16-O-desmethyl-rapamycin], the “tissue concentration of tissue adjacent to the balloon treated segment” value in series [5] (Superficial Femoral Artery (SFA) tissue, within or at 6 hours) is “at least 5.94 ng/mg”; in series [5] (Superficial Femoral Artery (SFA) tissue, within or at 3 day) it was “at least 4.4 ng/mg”; in series [5] (Superficial Femoral Artery (SFA) tissue, within or at 7 days), “at least 1.16 ng/mg”; in series [5] (coronary artery tissue, within or at 6 hours) it was “at least 6.52 ng/mg”; in series [5] (coronary artery tissue, within or at 3 day), “at least 3.77 ng/mg”; in series [5] (coronary artery tissue, within or at 7 days), “at least 1.47 ng/mg”.
Regarding `O=C(NC[C@H]1CN(c2ccc(N3CCOCC3=O)cc2)C(=O)O1)c1ccc(Cl)s1` [Rivaroxaban], in series [2], the IC50 is 312 nM and the “IC50 for Tissue factor generated antiplatelet” value is listed as 0.136 ng/mg. For the same compound, in series [3], the concentration at 3 h was ~21000 ng/g and the concentration at 28 days was ~340 ng/g. In series [3] (within one hour from injury and/or implant), the concentration at 1 h is ~38000 ng/g. Further, in series [5] (pig, Superficial Femoral Artery (SFA) tissue, within or at 15 minutes, read-out: tissue concentration of tissue adjacent to the balloon treated segment), the concentration at 15 min was ≥ 40600 ng/g. In addition, the concentration at 15 min in series [5] (pig, coronary artery tissue, within or at 15 min, read-out: tissue concentration of tissue adjacent to the balloon treated segment) was ≥ 1230 ng/g.
For `CO[C@H]1C[C@@H]2CC[C@@H](C)[C@@](O)(O2)C(=O)C(=O)N2CCCC[C@H]2C(=O)O[C@H]([C@H](C)C[C@@H]2CC[C@@H](O)[C@H](OC)C2)CC(=O)[C@H](C)/C=C(\C)[C@@H](O)[C@@H](OC)C(=O)[C@H](C)C[C@H](C)/C=C/C=C/C=C/1C` [Sirolimus, rapamycin (also called sirolimus)], in series [3], the concentration at 3 h is ~27000 ng/g, the concentration at 28 days is ~940 ng/g and the concentration at 90 days is ~1280 ng/g. Besides, in series [5] (pig, coronary artery tissue, within or at 7 days, read-out: tissue concentration of tissue adjacent to the balloon treated segment), the concentration at 7 days is ≥ 1450 ng/g.

(Values after patent US11654036B2, “Anticoagulant compounds and methods and devices for their use” (priority 2020, dated 2023).)
